Results on nine compounds are retold here after patent publication US20120094985A1, “PHARMACEUTICAL COMPOSITIONS COMPRISING CHLOROPHENYL PIPERAZINE DERIVED COMPOUNDS AND USE OF THE COMPOUNDS IN PRODUCING MEDICAMENTS” (KAOHSIUNG MEDICAL UNIVERSITY, priority 2009, published 2012).

For one assay, the system named is Male ddk mice. The experiment in a line: Forced swim test (FST), mean immobility time. The assay is classed as in vivo, mouse. To be noted: for immobility period in FST: 4 mg/kg each (FIG. 2). As for the experimental part: Male ddk mice weighing between 22 and 30 g, bred in the Center Animal House facility of Kaohsiung Medical University (KMU), Taiwan, were used. These experimental animals were housed under standard laboratory conditions and maintained on natural light and dark cycle, and had free access to food and water. Animals were acclimatized to laboratory conditions before the experiment. Each animal was used only once. All the experiments were carried out between 9 a.m. and 3 p.m. The experimental protocols were approved by the Animal Center of KMU, Taiwan.
Forced swim would induce immobility of an animal to simulate the phenomenon of human depression (Renard et al., 2003) and antidepressant was used to reverse this phenomenon (Kulkarni and Mehta, 1985). This test procedure was carried out according to the previous animal model (Reddy et al., 1998).
The doses of the drugs used were selected according to the previous studies (Patil et al., 2005). Different doses were administrated intraperitoneally in a fixed volume of 1 ml/100 g body weight for 30 minutes before the animals were subjected to test.
The possible participation of the NO/cGMP pathway in the antidepressant effect of Pulmodil was investigated. Mice were pretreated with NO/cGMP pathway regulation related drugs ([…], L-arginine, methylene blue or 7-nitroindazole), and then Pulmodil or vehicle was injected to the animal. Forced swim test was performed 30 minutes later.
The possible participation of the 5-HT pathway in the antidepressant effect of Pulmodul was investigated. Mice were pretreated with 5-HT pathway related drugs (DOI, m-CPP or SB200646), and then Pulmodil or vehicle was injected to the animal. Forced swim test was performed 30 minutes later.
Results expressed as mean (sec.)±S.E.M. and the data was analyzed using One-Way or Two-Way Analysis of Variance (ANOVA) where appropriate. If any statistically significant change was found, post-hoc comparisons were performed using a Dunnett's test. Data was deemed significant when P<0.05 was considered statistically significant.

The test system of assay [1] is Male ddk mice pre-treated with Reserpine. As to the kind of experiment: Reserpine-induced forced swimming immobility. The assay is classed as in vivo, mouse. To be noted: for Reserpine-induced immobility: Reserpine 2 mg/kg pre-treatment, then 4 mg/kg, p<0.05 (FIG. 4).
Description: Male ddk mice weighing between 22 and 30 g, bred in the Center Animal House facility of Kaohsiung Medical University (KMU), Taiwan, were used. […] Animals were acclimatized to laboratory conditions before the experiment. Each animal was used only once. All the experiments were carried out between 9 a.m. and 3 p.m. […] This test procedure was carried out according to the previous animal model (Reddy et al., 1998). […] Mice were pretreated with NO/cGMP pathway regulation related drugs (Reserpine, L-arginine, methylene blue or 7-nitroindazole), and then Pulmodil or vehicle was injected to the animal. Forced swim test was performed 30 minutes later.
In assay [2] the test system is cGMP concentration of mouse brain. As to the kind of experiment: cGMP analysis of mouse brain (ELISA). The class given is in vivo. To be noted: 30 minutes post injection, basal (vehicle) 0.131±0.003. As for the experimental part: Male mice were given Pulmodil with intraperitoneal (i.p.) injection, where mice were divided into three groups, and 0.5, 1 and 2 mg/kg Pulmodil respectively for each group. After 30-minute injection, mice were anesthetized with […] chloral hydrate, and then were fixed on the stereotaxic frame (Narishige, Japan) to obtain mice brain. The isolated brain was homogenized and extracted with 0.1 N HCl. The extract was centrifuged at 4° C., at 14,000 rpm for 30 minutes, and supernatant was collected to determine cGMP concentration, which was determined with commercial enzyme-linked immunosorbent assay (ELISA) kit (Assay Designs) by acetylation procedure.
(In an ELISA, binding on a coated surface is turned into a signal by an enzyme label.)

On to `CN(C)c1ccc2nc3ccc(=[N+](C)C)cc-3sc2c1` [Methylene blue, methylene blue, reference compound], for which the “immobility time per se” value in the assay on Male ddk mice (methylene blue 10 mg/kg i.p. alone (FIG. 6)) is “did not affect the immobility time”.

Take `O=c1n(CCCN2CCN(c3cccc(Cl)c3)CC2)nc2ccccn12` [Trazodone, reference compound]: the “immobility period in FST” value with Male ddk mice is listed as “significantly decreased the immobility period”. Besides, the Reserpine-induced immobility entry in assay [1] is reported as “significantly inhibited”.

As for `Clc1cccc(N2CCNCC2)c1` [m-CPP, meta-chlorophenylpiperazine, reference compound], the “immobility time per se” value in the assay with Male ddk mice (m-CPP 4 mg/kg i.p. alone, p<0.05 vs vehicle (FIG. 9)) is given as “mildly increased the immobility time”.

In the case of `COC(=O)[C@H]1[C@H]2C[C@@H]3c4[nH]c5cc(OC)ccc5c4CCN3C[C@H]2C[C@@H](OC(=O)c2cc(OC)c(OC)c(OC)c2)[C@@H]1OC` [Reserpine], the “immobility period in mouse FST, Reserpine alone” value in assay [1] (Reserpine 2 mg/kg, p<0.05 (FIG. 3)) is reported as “increased immobility period”.

Take `COc1cc(CC(C)N)c(OC)cc1I` (stereo not drawn) [DOI, 1-(2,5-dimethoxy-4-iodophenyl)-2-aminopropane, reference compound]: the immobility per se result in the assay with Male ddk mice (DOI 4 mg/kg i.p. alone (FIG. 8)) is “did not affect the immobility”.

`Cl.Cn1ccc2cc(NC(=O)Nc3cccnc3)ccc21` [SB200646, N-(1-methyl-1H-5-indolyl)-N′-(3-pyridinyl)urea hydrochloride, reference compound]: in the assay on Male ddk mice (SB200646 4 mg/kg i.p. alone (FIG. 10)), the “immobility time per se” value is on record as “did not affect the immobility time”.

With `CCCc1nn(C)c2c(=O)[nH]c(-c3cc(S(=O)(=O)N4CCN(C)CC4)ccc3OCC)nc12` [Sildenafil, reference compound], in the assay with Male ddk mice, the “immobility period in FST” value is “could not significantly affect immobility time”. For the same compound, in assay [1], the Reserpine-induced immobility result is recorded as “significantly inhibited”.

As for `Cl.Cn1c(=O)c2c(ncn2CCN2CCN(c3ccccc3Cl)CC2)n(C)c1=O` [Pulmodil, 7-[2-[4-(2-chlorophenyl)piperazinyl]ethyl]-1,3-dimethylxanthine.acid], the “immobility period in mouse FST” value in the assay with Male ddk mice (4, 8 and 16 mg/kg, compared with vehicle, p<0.05 (FIG. 1)) is reported as “produced a decrease in immobility period”. Besides, the “immobility time after 7-nitroindazole pre-treatment” value in the assay with Male ddk mice (7-nitroindazole 25 mg/kg i.p. for 30 minutes, then Pulmodil 8 mg/kg i.p., P<0.05 (FIG. 7)) is “shortened the immobility time”. The “immobility time after DOI pre-treatment” value in the assay with Male ddk mice (DOI 4 mg/kg i.p. for 30 minutes, then Pulmodil 4 or 8 mg/kg i.p., in comparison with FIG. 1, p<0.05 (FIG. 8)) is listed as “prolonged the immobility time”. Moreover, the “immobility period after L-arginine pre-treatment” value in the assay with Male ddk mice (L-arginine 750 mg/kg i.p. for 30 minutes, then Pulmodil 16 mg/kg i.p., compared to Pulmodil without L-arginine (FIG. 5)) is “increase in immobility period”. For the same compound, the “immobility time after SB200646 pre-treatment” value in the assay on Male ddk mice (SB200646 4 mg/kg i.p., then Pulmodil 4 or 8 mg/kg i.p., p<0.05 (FIG. 10)) is “significantly reduced this immobility time”. Further, in the assay with Male ddk mice (m-CPP 4 mg/kg i.p., then Pulmodil 4 or 8 mg/kg i.p., in comparison with FIG. 1, p<0.05 (FIG. 9)), the “immobility time after m-CPP pre-treatment” value is reported as “shortened this immobility time”. Moreover, the “immobility time after methylene blue pre-treatment” value in the assay on Male ddk mice (methylene blue 10 mg/kg i.p. for 30 minutes, then Pulmodil 8 mg/kg i.p., p<0.05 (FIG. 6)) is on record as “significantly decreased the immobility time”. Further, the “cGMP concentration in the brain” value in assay [2] (0.5 mg/kg i.p.) came to 0.201 ± 0.003 fmol/µg; in assay [2] (1 mg/kg i.p.), 0.293 ± 0.023 fmol/µg; in assay [2] (2 mg/kg i.p.), 0.288 ± 0.0234 fmol/µg.

Regarding `Cn1c(=O)c2c(ncn2CCN2CCN(c3ccccc3Cl)CC2)n(C)c1=O` [xanthine-based compound, 7-[2-[4-(2-chlorophenyl)piperazinyl]ethyl]-1,3-dimethylxanthine], the “immobility period after Reserpine pre-treatment” value in assay [1] (Reserpine 2 mg/kg for 4 hours, then 2, 3, 4 or 8 mg/kg, p<0.05 vs Reserpine (FIG. 3)) is given as “dose-dependently reduced the immobility period”. The Reserpine-induced immobility result in assay [1] is “significantly inhibited”.
